Assay results: patent US7423026B2, “Methylated cyclodextrin complexes” (PediPharm Oy, priority 2002, dated 2008)

Key:
[1] = Aqueous phase-solubility study of cannabinoids with RM-β-CD; type: physicochemical; conditions: for complexation constant for 1:1 inclusion complex, K1:1 / complexation constant for 1:2 inclusion complex, K1:2: with RM-β-CD, calculated from Ap-type phase-solubility diagram
Source text: (§1) AU the phase-solubility diagrams (cannabinoid concentration as a function of CD concentration) are Ap-type (Higuchi and Connors 1965) and calculated complexation constants for 1:1 and 1:2 inclusion complexes has been shown in Table 1.

[2] = Aqueous phase-solubility study of cannabinoids with HP-β-CD; type: physicochemical; conditions: calculated from Ap-type phase-solubility diagram
Source text: as §1

[3] = Dissolution studies of CBD formulations in 2% RM-β-CD dissolution media (pH 6.6); type: physicochemical; conditions: gelatine capsule, 1.0 mg pure CBD and 99 mg lactose, without RM-β-CD, 2% RM-β-CD media
[4] = Dissolution studies of THC formulations in 2% RM-β-CD dissolution media (pH 6.6); type: physicochemical; conditions: gelatine capsule, 1.0 mg pure THC and 99 mg lactose, without RM-β-CD, 2% RM-β-CD media
[5] = Aqueous solubility of THC in HP-β-CD solution (Jarho et al.); type: physicochemical; conditions: calculated from Jarho et al.
Method: Compared to earlier findings, methylated β-CD improves the aqueous solubility of cannabinoids more efficiently, imparting promising dissolution properties for cannabinoids. […] However, the complexation of cannabinoids with methylated β-CD is more efficient compared to HP-β-CD.
As discussed above, the bioavailability of THC is 6-20% after oral administration. THC is commercially available as a capsule containing 5-10 mg of THC (Marinol). […] Thus, it can be calculated that 2 g of HP-β-CD is needed to establish a dosage form containing 5 mg of complexed THC. This is an amount that is too much for tablet formulations. According to the invention it has now been shown that the same amount of THC can be complexed with 200 mg of RM-β-CD.

[6] = 40% solution of HP-β-CD; cited from earlier work
[7] = oral administration, depending on the drug vehicle; cited from earlier work

Row | Structure (SMILES) | complexation constant for 1:1 inclusion complex, K1:1 [1] | complexation constant for 1:2 inclusion complex, K1:2 [1] [M⁻¹] | complexation constant for 1:1 inclusion complex, K1:1 [2] | complexation constant for 1:2 inclusion complex, K1:2 [2] [M⁻¹] | time until CBD is fully dissolved [3] [h] | amount of RM-β-CD to prepare the same formulation (1 mg of THC) ([1]; 1 mg of THC) [mg] | amount of RM-β-CD that complexes 5 mg of THC ([1]; same amount of THC (5 mg)) [mg] | time until THC is fully dissolved [4] [h] | amount of HP-β-CD needed for a dosage form containing 5 mg of complexed THC [5] [g] | amount of HP-β-CD needed to complex 1 mg of THC [5] [mg] | concentration of THC solution obtained [6] [µg/mL] | bioavailability [7]
1 | C=C(C)[C@@H]1CCC(C)=C[C@H]1c1c(O)cc(CCCCC)cc1O [CBD, cannabidiol] | 484 145 M^−1 | 8 | 13 844 M^−1 | 62 | 3 |  |  |  |  |  |  | 
2 | CCCCCc1cc(O)c2c(c1)OC(C)(C)[C@@H]1CCC(C)=C[C@@H]21 [THC, Δ^9-tetrahydrocannabinol] | 19 563 M^−1 | 38 | 4 222 M^−1 | 58 |  | 25.7 | 200 | 1 | 2 | 400 | 1000 | 6-20%
